Assay results: patent US9181233B2, “Inhibitors of glutaminyl cyclase” (PROBIODRUG AG, priority 2010, dated 2015)

Molecular target: hQC (Homo sapiens (Human), UniProt Q16769)
Experiment: QC inhibitor assay (hQC inhibition, IC50 and Ki determination)
Type: biochemical
Conditions: for Ki: competitive inhibition fit
Procedure: All measurements were performed with a BioAssay Reader HTS-7000Plus for microplates (Perkin Elmer) at 30° C. QC activity was evaluated fluorometrically using H-Gln-βNA. The samples consisted of 0.2 mM fluorogenic substrate, 0.25 U pyroglutamyl aminopeptidase (Unizyme, Hørsholm, Denmark) in 0.2 M Tris/HCl, pH 8.0 containing 20 mM EDTA and an appropriately diluted aliquot of QC in a final volume of 250 μl. Excitation/emission wavelengths were 320/410 nm. The assay reactions were initiated by addition of glutaminyl cyclase. QC activity was determined from a standard curve of β-naphthylamine under assay conditions. One unit is defined as the amount of QC catalyzing the formation of 1 μmol pGlu-βNA from H-Gln-βNA per minute under the described conditions.
In a second fluorometric assay, QC was activity determined using H-Gln-AMC as substrate. Reactions were carried out at 30° C. utilizing the NOVOStar reader for microplates (BMG labtechnologies). The samples consisted of varying concentrations of the fluorogenic substrate, 0.1 U pyroglutamyl aminopeptidase (Qiagen) in 0.05 M Tris/HCl, pH 8.0 containing 5 mM EDTA and an appropriately diluted aliquot of QC in a final volume of 250 μl. Excitation/emission wavelengths were 380/460 nm. The assay reactions were initiated by addition of glutaminyl cyclase. QC activity was determined from a standard curve of 7-amino-4-methylcoumarin under assay conditions. The kinetic data were evaluated using GraFit software.
This novel assay was used to determine the kinetic parameters for most of the QC substrates. […] Samples consisted of the respective QC substrate, 0.3 mM NADH, 14 mM α-Ketoglutaric acid and 30 U/ml glutamate dehydrogenase in a final volume of 250 μl. Reactions were started by addition of QC and perused by monitoring of the decrease in absorbance at 340 nm for 8-15 min.
The initial velocities were evaluated and the enzymatic activity was determined from a standard curve of ammonia under assay conditions. All samples were measured at 30° C., using either the […]luor Plus or the Sunrise (both from TECAN) reader for microplates. Kinetic data was evaluated using GraFit software.
For inhibitor testing, the sample composition was the same as described above, except of the putative inhibitory compound added. For a rapid test of QC-inhibition, samples contained 4 mM of the respective inhibitor and a substrate concentration at 1 KM. For detailed investigations of the inhibition and determination of Ki-values, influence of the inhibitor on the auxiliary enzymes was investigated first. […] The inhibitory constant was evaluated by fitting the set of progress curves to the general equation for competitive inhibition using GraFit software.

hQC, sequence (Q16769 29-361): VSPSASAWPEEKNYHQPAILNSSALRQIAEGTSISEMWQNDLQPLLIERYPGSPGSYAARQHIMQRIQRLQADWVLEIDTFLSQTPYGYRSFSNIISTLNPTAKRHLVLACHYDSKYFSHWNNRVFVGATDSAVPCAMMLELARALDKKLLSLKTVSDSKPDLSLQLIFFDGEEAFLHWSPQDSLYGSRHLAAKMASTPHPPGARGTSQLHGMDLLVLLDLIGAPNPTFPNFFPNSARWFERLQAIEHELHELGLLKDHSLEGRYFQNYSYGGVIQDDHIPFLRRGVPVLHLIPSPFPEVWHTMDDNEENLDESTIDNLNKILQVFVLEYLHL

SMILES	IC50	Ki
COc1ccc(CCc2nnc(-c3ccc4[nH]cnc4c3)o2)cc1Cl [Example 39, 5-(5-(3-Chloro-4-methoxyphenethyl)-1,3,4-oxadiazol-2-yl)-1H-benzo[d]imidazole]	800 nM	130 nM
CSc1ccc(CCc2nnc(-c3ccc4[nH]cnc4c3)s2)cc1 [Example 50, 5-(5-(4-(Methylthio)phenethyl)-1,3,4-thiadiazol-2-yl)-1H-benzo[d]imidazole]	760 nM	80 nM
COc1ccc(CCc2nnc(-c3ccc4[nH]cnc4c3)s2)cc1Cl [Example 52, 5-(5-(3-Chloro-4-methoxyphenethyl)-1,3,4-thiadiazol-2-yl)-1H-benzo[d]imidazole]	680 nM	50 nM
COc1cc(CCc2nnc(-c3ccc4[nH]cnc4c3)s2)cc(OC)c1OC [Example 55, 5-(5-(3,4,5-Trimethoxyphenethyl)-1,3,4-thiadiazol-2-yl)-1H-benzo[d]imidazole]	490 nM	80 nM
Fc1ccc(CCc2nnc(-c3ccc4[nH]cnc4c3)s2)cc1F [Example 58, 5-(5-(3,4-Difluorophenethyl)-1,3,4-thiadiazol-2-yl)-1H-benzo[d]imidazole]	720 nM	140 nM
Fc1cccc(CCc2nnc(-c3ccc4[nH]cnc4c3)s2)c1 [Example 59, 5-(5-(3-fluorophenethyl)-1,3,4-thiadiazol-2-yl)-1H-benzo[d]imidazole]	560 nM	120 nM
COc1cccc(CCc2nnc(-c3ccc4[nH]cnc4c3)s2)c1 [Example 60, 5-(5-(3-Methoxyphenethyl)-1,3,4-thiadiazol-2-yl)-1H-benzo[d]imidazole]	450 nM	40 nM
COc1ccc(OC)c(CCc2nnc(-c3ccc4[nH]cnc4c3)s2)c1 [Example 62, 5-(5-(2,5-Dimethoxyphenethyl)-1,3,4-thiadiazol-2-yl)-1H-benzo[d]imidazole]	480 nM	80 nM
COc1cccc(CCc2nnc(-c3ccc4[nH]cnc4c3)s2)c1Cl [Example 63, 5-(5-(2-Chloro-3-methoxyphenethyl)-1,3,4-thiadiazol-2-yl)-1H-benzo[d]imidazole]	220 nM	100 nM

More lines, now with the values ahead:

IC50	Ki	SMILES
640 nM	110 nM	COc1ccc(Cn2cnnc2-c2ccc3[nH]cnc3c2)cc1 [Example 8, 5-(4-(4-Methoxybenzyl)-4H-1,2,4-triazol-3-yl)-1H-benzo[d]imidazole]
760 nM	200 nM	Clc1ccccc1Cn1cnnc1-c1ccc2[nH]cnc2c1 [Example 9, 5-(4-(2-Chlorobenzyl)-4H-1,2,4-triazol-3-yl)-1H-benzo[d]imidazole]
480 nM	80 nM	c1ccc(Oc2ccc(Cn3cnnc3-c3ccc4[nH]cnc4c3)cc2)cc1 [Example 10, 5-(4-(4-phenoxybenzyl)-4H-1,2,4-triazol-3-yl)-1H-benzo[d]imidazole]
520 nM	120 nM	Clc1cccc(Cn2cnnc2-c2ccc3[nH]cnc3c2)c1Cl [Example 22, 5-(4-(2,3-Dichlorobenzyl)-4H-1,2,4-triazol-3-yl)-1H-benzo[d]imidazole]
850 nM	230 nM	COc1ccc(Cn2cnnc2-c2ccc3[nH]cnc3c2)cc1Cl [Example 24, 5-(4-(3-Chloro-4-methoxybenzyl)-4H-1,2,4-triazol-3-yl)-1H-benzo[d]imidazole]
760 nM	170 nM	COc1ccccc1CCc1nnc(-c2ccc3[nH]cnc3c2)s1 [Example 61, 5-(5-(2-Methoxyphenethyl)-1,3,4-thiadiazol-2-yl)-1H-benzo[d]imidazole]
530 nM	120 nM	c1ccc(SCc2nnc(-c3ccc4[nH]cnc4c3)s2)cc1 [Example 65, 5-(5-((Phenylthio)methyl)-1,3,4-thiadiazol-2-yl)-1H-benzo[d]imidazole]
570 nM	120 nM	c1ccc(SCn2cc(-c3ccc4[nH]cnc4c3)nn2)cc1 [Example 84, 5-(1-((Phenylthio)methyl)-1H-1,2,3-triazol-4-yl)-1H-benzo[d]imidazole]
